Experimental data: ChEMBL document CHEMBL1133233, “The design and synthesis of thrombin inhibitors: the introduction of in vivo efficacy and oral bioavailability into benzthiazolylalanine inhibitors” (Bioorg Med Chem Lett, 2000)
≈ marks a conversion by molar mass, not a printed value.

Tests used:
[1] = Effectiveness to inhibit coagulation in plasma measured as activated partial thromboplastin time (APTT); assay type: functional
[2] = Bioavailability in rat (intraduodenal administration); assay type: ADME, organism-based; details: in vivo
[3] = Oral bioavailability in rat; assay type: ADME, organism-based; details: in vivo
[4] = Aqueous solubility at pH 7; assay type: physicochemical
Prothrombin = Prothrombin (Homo sapiens, UniProt P00734); experiment: Evaluated for the binding affinity against thrombin
[5] = Aqueous solubility at pH 2; assay type: physicochemical
Plasminogen = Plasminogen (Homo sapiens, UniProt P00747); experiment: Inhibitory activity against plasmin
Serine protease 1 = Serine protease 1 (Homo sapiens, UniProt P07477); experiment: Inhibitory activity against trypsin
[6] = Inhibitory activity against TF/VIIa
Coagulation factor X = Coagulation factor X (Homo sapiens, UniProt P00742); experiment: Inhibitory activity against Coagulation factor X
Rattus norvegicus [7] = experiment: Inhibition of platelet deposition was determined on arterial thrombosis in the rat at 20 mg/kg oral administration using an acute model of injury induced thrombus formation; assay type: functional; details: read-out: Inhibition
Rattus norvegicus [8] = experiment: Inhibition of fibrin deposition was determined after 1 hr on arterial thrombosis in the rat at 20 mg/kg oral administration using an acute model of injury induced thrombus formation; assay type: functional
Rattus norvegicus [9] = experiment: Inhibition of fibrin deposition was determined after 2 hr on arterial thrombosis in the rat at 20 mg/kg oral administration using an acute model of injury induced thrombus formation; assay type: functional
Rattus norvegicus [10] = experiment: Inhibition of platelet deposition was determined on arterial thrombosis in the rat at 10 mg/kg oral administration using an acute model of injury induced thrombus formation; assay type: functional

Serine protease 1, sequence (P07477 whole entry): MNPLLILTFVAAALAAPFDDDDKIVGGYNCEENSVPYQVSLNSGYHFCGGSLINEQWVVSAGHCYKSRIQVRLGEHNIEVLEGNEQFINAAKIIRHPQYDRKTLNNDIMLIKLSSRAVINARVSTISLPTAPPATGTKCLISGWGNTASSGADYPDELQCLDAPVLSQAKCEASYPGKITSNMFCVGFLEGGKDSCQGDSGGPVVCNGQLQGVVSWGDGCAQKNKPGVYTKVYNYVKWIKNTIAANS
Plasminogen, sequence (P00747 97-580 limits assumed): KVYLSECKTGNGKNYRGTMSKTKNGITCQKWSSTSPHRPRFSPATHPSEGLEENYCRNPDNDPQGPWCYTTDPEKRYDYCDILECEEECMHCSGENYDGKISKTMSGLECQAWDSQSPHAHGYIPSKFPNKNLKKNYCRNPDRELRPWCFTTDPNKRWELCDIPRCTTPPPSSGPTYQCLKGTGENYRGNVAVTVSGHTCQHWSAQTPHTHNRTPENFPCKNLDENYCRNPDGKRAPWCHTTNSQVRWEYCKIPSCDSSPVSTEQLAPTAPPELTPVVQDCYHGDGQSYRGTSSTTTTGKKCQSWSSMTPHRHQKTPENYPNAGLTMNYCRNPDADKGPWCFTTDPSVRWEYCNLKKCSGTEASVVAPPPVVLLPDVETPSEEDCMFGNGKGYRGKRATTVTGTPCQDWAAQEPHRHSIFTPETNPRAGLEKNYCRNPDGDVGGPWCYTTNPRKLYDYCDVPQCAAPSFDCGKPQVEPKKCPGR
Plasminogen, sequence (P00747 581-810 limits assumed): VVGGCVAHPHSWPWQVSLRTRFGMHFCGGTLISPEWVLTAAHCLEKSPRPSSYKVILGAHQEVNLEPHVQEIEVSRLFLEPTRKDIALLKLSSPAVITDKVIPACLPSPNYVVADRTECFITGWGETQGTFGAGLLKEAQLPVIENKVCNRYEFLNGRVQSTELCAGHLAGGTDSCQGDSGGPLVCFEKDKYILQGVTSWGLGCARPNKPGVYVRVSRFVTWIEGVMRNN
Coagulation factor X, sequence (P00742 41-179 limits assumed): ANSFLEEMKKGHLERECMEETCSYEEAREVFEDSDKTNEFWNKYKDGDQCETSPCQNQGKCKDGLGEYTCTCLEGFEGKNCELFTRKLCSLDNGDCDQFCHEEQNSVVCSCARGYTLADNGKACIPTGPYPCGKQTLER
Coagulation factor X, sequence (P00742 235-488 limits assumed): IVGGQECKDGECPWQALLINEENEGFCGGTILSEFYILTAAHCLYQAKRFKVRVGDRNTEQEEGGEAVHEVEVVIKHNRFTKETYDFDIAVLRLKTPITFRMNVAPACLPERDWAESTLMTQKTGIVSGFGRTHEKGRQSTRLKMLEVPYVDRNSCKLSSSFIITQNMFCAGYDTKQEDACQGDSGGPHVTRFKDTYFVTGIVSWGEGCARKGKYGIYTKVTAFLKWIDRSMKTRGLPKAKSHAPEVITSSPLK

| SMILES | APTT [1] [µM] | Ki (Prothrombin) [µM] | also measured |
| --- | --- | --- | --- |
| CCOC(=O)c1cc2c(c(S(=O)(=O)N[C@@H](Cc3nc4ccccc4s3)C(=O)N3CCC(CCF)CC3)c1)NCC(C)(C)C2 | 105.4 | – | – |
| CC1(C)CNc2c(cc(CCC(=O)O)cc2S(=O)(=O)N[C@@H](Cc2nc3ccccc3s2)C(=O)N2CCC(CCF)CC2)C1 | 10.7 | 0.082 | bioavailability [2]: 50%; bioavailability [3]: 0%; solubility [4]: 5.15 µg/mL (≈ 8.16 µM) |
| COCCOCOCc1cc2c(c(S(=O)(=O)N[C@@H](Cc3nc4ccccc4s3)C(=O)N3CCC(CCF)CC3)c1)NCC(C)(C)C2 | 18 | 0.125 | – |
| CC(=O)N1CCN(C(=O)CCc2cc3c(c(S(=O)(=O)N[C@@H](Cc4nc5ccccc5s4)C(=O)N4CCC(CCF)CC4)c2)NCC(C)(C)C3)CC1 | 7.5 | 0.034 | – |
| CC1(C)CNc2c(cc(C(=O)O)cc2S(=O)(=O)N[C@@H](Cc2nc3ccccc3s2)C(=O)N2CCC(CCF)CC2)C1 | 13 | 0.359 | – |
| CC1(C)CNc2c(cc(CCO)cc2S(=O)(=O)N[C@@H](Cc2nc3ccccc3s2)C(=O)N2CCC(CCF)CC2)C1 | 13.7 | 0.039 | – |
| CC1(C)CNc2c(cc(CCC(=O)N3CCN(CC(=O)N4CCOCC4)CC3)cc2S(=O)(=O)N[C@@H](Cc2nc3ccccc3s2)C(=O)N2CCC(CCF)CC2)C1 [listing 1 of 2 here] | 7 | 0.057 | bioavailability [2]: 38%; bioavailability [3]: 28%; solubility [5]: 15000 µg/mL (≈ 18200 µM); solubility [4]: 130 µg/mL (≈ 157 µM); Ki (Plasminogen): 212 µM; Ki (Serine protease 1): 153 µM; Ki [6]: 11600 µM; Ki (Coagulation factor X): ≥ 200 µM |
| CC1(C)CNc2c(cc(CCNC(N)=O)cc2S(=O)(=O)N[C@@H](Cc2nc3ccccc3s2)C(=O)N2CCC(CCF)CC2)C1 | 10.2 | 0.047 | – |
| CC1(C)CNc2c(cc(CCC(=O)N3CCN(Cc4ccncc4)CC3)cc2S(=O)(=O)N[C@@H](Cc2nc3ccccc3s2)C(=O)N2CCC(CCF)CC2)C1 | 9.7 | 0.027 | – |
| CC1(C)CNc2c(cccc2S(=O)(=O)N[C@@H](CCCN=C(N)N)C(=O)N2CCC(CCF)CC2)C1 [CGH-728] | 2.1 | 0.006 | – |
| CC1(C)CNc2c(cc(CCC(=O)N3CCN(CC(=O)N4CCOCC4)CC3)cc2S(=O)(=O)N[C@@H](Cc2nc3ccccc3s2)C(=O)N2CCC(CCF)CC2)C1 [listing 2 of 2 here] | – | – | inhibition in vivo at 20 mg/kg (Rattus norvegicus [7]): 60%; inhibition in vivo at 20 mg/kg (Rattus norvegicus [8]): 48%; inhibition in vivo at 20 mg/kg (Rattus norvegicus [9]): 43%; inhibition in vivo at 10 mg/kg (Rattus norvegicus [10]): 60% |
| CC1(C)CNc2c(cc(CCCC(=O)O)cc2S(=O)(=O)N[C@@H](Cc2nc3ccccc3s2)C(=O)N2CCC(CCF)CC2)C1 | 16.6 | 0.094 | – |
| CN(C)C(=O)CCc1cc2c(c(S(=O)(=O)N[C@@H](Cc3nc4ccccc4s3)C(=O)N3CCC(CCF)CC3)c1)NCC(C)(C)C2 | 9.2 | 0.034 | – |
| CC1(C)CNc2c(cccc2S(=O)(=O)N[C@@H](Cc2nc3ccccc3s2)C(=O)N2CCC(CCF)CC2)C1 | 26.5 | – | – |
| CC1(C)CNc2c(cc(CC(=O)O)cc2S(=O)(=O)N[C@@H](Cc2nc3ccccc3s2)C(=O)N2CCC(CCF)CC2)C1 | 14.9 | 0.5 | – |
| CC1(C)CNc2c(cc(CO)cc2S(=O)(=O)N[C@@H](Cc2nc3ccccc3s2)C(=O)N2CCC(CCF)CC2)C1 | 16.8 | 0.064 | – |
| CNC(=O)OCc1cc2c(c(S(=O)(=O)N[C@@H](Cc3nc4ccccc4s3)C(=O)N3CCC(CCF)CC3)c1)NCC(C)(C)C2 | 20.7 | 0.077 | – |
| CC1(C)CNc2c(cc(CCCO)cc2S(=O)(=O)N[C@@H](Cc2nc3ccccc3s2)C(=O)N2CCC(CCF)CC2)C1 | 19 | 0.119 | – |
